According to patent US8895535B2, “Pyrrolidinones as MetAP-2 inhibitors” (Merck Patent GmbH, priority 2010, dated 2014):

Biological target: MetAP-2 (Homo sapiens, UniProt P50579)
Test: MetAP-2 activity measurement (coupled enzymatic reactions, substrate Met-Arg-Ser)
Assay type: biochemical
Settings: Inhibition of MetAP-2; read-out: IC50 enzyme
Procedure: MetAP-2 Activity Measurement
The MetAP-2 activity is determined by coupling enzymatic reactions. The tripeptide Met-Arg-Ser (MAS) is employed as substrate. The methionine liberated is firstly converted into Metox and H2O2 by L-aminooxidase (AAO).
MetAP-2 activity can be recorded continuously as kinetics. The reaction scheme illustrates that one mol of dianisidineox is formed per mol of methionene. The MetAP-2 enzyme activity can therefore be calculated directly as Δ absorption per time unit. […] of the MetAP-2 activity (mol of Met/time unit) is possible with the aid of the dianisidineox extinction coefficient.
The change in extinction per time unit is depicted graphically and a slope calculation is carried out in the visually linear region of the reaction.

Sequence of MetAP-2 (P50579 whole entry, species assumed): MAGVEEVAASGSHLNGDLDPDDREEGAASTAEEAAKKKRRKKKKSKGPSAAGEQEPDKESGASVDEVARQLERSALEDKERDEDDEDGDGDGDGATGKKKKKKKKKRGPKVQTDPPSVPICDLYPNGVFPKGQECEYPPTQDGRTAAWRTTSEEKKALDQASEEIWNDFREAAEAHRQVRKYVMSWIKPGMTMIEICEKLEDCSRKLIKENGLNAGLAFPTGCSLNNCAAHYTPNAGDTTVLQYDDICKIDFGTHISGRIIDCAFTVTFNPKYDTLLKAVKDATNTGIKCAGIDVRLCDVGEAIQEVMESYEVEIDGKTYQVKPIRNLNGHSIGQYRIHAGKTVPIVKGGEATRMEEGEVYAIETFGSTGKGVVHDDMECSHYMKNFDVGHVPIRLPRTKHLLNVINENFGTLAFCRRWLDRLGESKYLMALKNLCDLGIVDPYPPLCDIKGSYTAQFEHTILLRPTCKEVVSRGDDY

Structure (SMILES)	IC50 [µM]
O=C(NCc1ccc(F)c(Cl)c1F)[C@@]1(O)CCN(c2ccccc2)C1=O [A46]	0.01 to 1
O=C(NCc1ccc(F)c(Cl)c1)[C@@]1(O)CCN(c2ccccc2)C1=O [A47]	0.01 to 1
O=C(NCc1cc(Cl)ccc1F)[C@@]1(O)CCN(c2ccccc2)C1=O [A49]	0.01 to 1
O=C(NCc1cccc(Br)c1)[C@@]1(O)CCN(c2ccc(F)c(Cl)c2)C1=O [A50]	0.01 to 1
O=C(NCCc1cccs1)[C@@]1(O)CCN(c2ccc(F)c(Cl)c2)C1=O [A51]	0.01 to 1
O=C(NCc1cccc(Br)c1)[C@@]1(O)CCN(c2ccc(F)cc2F)C1=O [A52]	0.01 to 1
O=C(NCc1cccc(Br)c1)[C@]1(O)CCN(c2cccc3ccccc23)C1=O [A53]	> 10
O=C(NCc1cccc(Br)c1)[C@@]1(O)CCN(c2ccc3ccccc3c2)C1=O [A54]	0.01 to 1
O=C(NCCc1cccs1)[C@@]1(O)CCN(c2ccc3ccccc3c2)C1=O [A55]	0.01 to 1
O=C(NCc1cccc(Cl)c1F)[C@@]1(O)CCN(c2ccc(F)c(Cl)c2)C1=O [A56]	0.01 to 1
O=C(NCc1cccc(Cl)c1F)[C@@]1(O)CCN(c2cccc(Cl)c2)C1=O [A57]	0.01 to 1
O=C(NCc1cccc(Cl)c1F)[C@@]1(O)CCN(c2ccc(F)cc2)C1=O [A58]	0.01 to 1
O=C(NCc1nc2ccccc2s1)[C@@]1(O)CCN(c2ccccc2)C1=O [A60]	> 10
O=C(NCCc1cccs1)[C@@]1(Cl)CCN(c2ccccc2)C1=O [A61]	> 10
O=C(NCc1ccco1)[C@@]1(O)CCN(c2ccccc2)C1=O [A62]	0.01 to 1
CC(C)CCNC(=O)C1(O)CCN(c2ccccc2)C1=O (stereo not drawn) [A63]	0.01 to 1
O=C(NCc1ccco1)C1(O)CCN(c2ccccc2)C1=O (stereo not drawn) [A64]	1 to 10
O=C(NCc1cccc(Cl)c1F)[C@]1(O)CCN(c2ccc(F)cc2)C1=O [A67]	1 to 10
O=C(NCc1cccc(Cl)c1F)[C@]1(O)CCN(c2cccc(Cl)c2)C1=O [A68]	1 to 10
O=C(NCCc1cccs1)[C@]1(O)CCN(c2ccc3ccccc3c2)C1=O [A69]	0.01 to 1
O=C(NCc1cccc(Br)c1)[C@]1(O)CCN(c2ccc3ccccc3c2)C1=O [A70]	> 10
O=C(NCc1cccc(Br)c1)[C@@]1(O)CCN(c2cccc3ccccc23)C1=O [A71]	0.01 to 1
O=C(NCc1cccc(Br)c1)[C@]1(O)CCN(c2ccc(F)cc2F)C1=O [A72]	> 10
O=C(NCc1cccc(Br)c1)[C@]1(O)CCN(c2ccc(F)c(Cl)c2)C1=O [A73]	1 to 10

Structure (SMILES)	IC50 [µM]
O=C(NCc1ccc(F)c(Cl)c1)[C@]1(O)CCN(c2ccccc2)C1=O [A74]	> 10
O=C(NCc1cccc(Br)c1)[C@]1(O)CCN(c2ccc(Br)cc2)C1=O [A76]	> 10
O=C(NCCc1cccs1)[C@]1(O)CCN(c2ccc(Br)cc2)C1=O [A77]	1 to 10
O=C(NCCc1cccs1)[C@]1(O)CCN(c2ccc(F)cc2)C1=O [A78]	1 to 10
O=C(NCc1cccc(Br)c1)[C@]1(O)CCN(c2ccccc2)C1=O [A79]	> 10
O=C(NCc1cc(F)cc(C(F)(F)F)c1)[C@@]1(O)CCN(c2ccc(F)cc2)C1=O [A162]	0.01 to 1
O=C(NCc1cc(C(F)(F)F)cc(C(F)(F)F)c1)[C@@]1(O)CCN(c2ccc(F)cc2)C1=O [A163]	> 10
O=C(NCc1cc(F)cc(C(F)(F)F)c1)[C@@]1(O)CCN(c2ccccc2)C1=O [A164]	0.01 to 1
O=C(NCc1cc(C(F)(F)F)cc(C(F)(F)F)c1)[C@@]1(O)CCN(c2ccccc2)C1=O [A165]	> 10
Cn1cc(N2CC[C@](O)(C(=O)NCc3cccc(Cl)c3F)C2=O)cn1 [A170]	0.01 to 1
COCCN1CC[C@](O)(C(=O)NCc2cc(F)cc(F)c2)C1=O [A171]	1 to 10
O=C(NCc1cc(F)cc(Cl)c1)[C@@]1(O)CCN(C2CCCCC2)C1=O [A173]	0.01 to 1
Cc1ccc(N2CC[C@](O)(C(=O)NCc3cc(F)cc(Cl)c3)C2=O)cn1 [A181]	0.01 to 1
CC(C)n1cc(N2CC[C@](O)(C(=O)NCc3cccc(Cl)c3F)C2=O)cn1 [A200]	0.01 to 1
CCn1cc(N2CC[C@](O)(C(=O)NCc3cc(F)cc(F)c3)C2=O)cn1 [A211]	0.01 to 1
N#Cc1cccc(CNC(=O)[C@@]2(O)CCN(c3ccccc3)C2=O)c1 [A215]	0.01 to 1
O=C(NCCc1cc(F)cc(Cl)c1)[C@]1(O)CCN(c2cccc(C(F)(F)F)c2)C1=O [A220]	1 to 10
O=C(NCCc1cc(F)cc(Cl)c1)[C@@]1(O)CCN(c2ccc(C(F)(F)F)cc2)C1=O [A233]	0.01 to 1
CC(C)n1cc(N2CC[C@](O)(C(=O)NCCc3cc(F)cc(Cl)c3)C2=O)cn1 [A240]	0.01 to 1
CS(=O)(=O)N1CCc2cc(N3CCC(O)(C(=O)NCc4cc(F)cc(Cl)c4)C3=O)ccc21 (stereo not drawn) [A253]	0.01 to 1
CS(=O)(=O)c1ccc(N2CC[C@](O)(C(=O)NCc3cc(F)cc(Cl)c3)C2=O)cc1 [A260]	0.01 to 1
CC(=O)N1CCc2cc(N3CCC(O)(C(=O)NCCc4cc(F)cc(Cl)c4)C3=O)ccc21 (stereo not drawn) [A261]	0.01 to 1
Cc1nnc(-c2ccc(N3CC[C@](O)(C(=O)NCc4cc(F)cc(Cl)c4)C3=O)cc2)o1 [A267]	0.01 to 1
O=C(NCc1cc(F)cc(Cl)c1)C1(O)CCN(c2ccc3c(cnn3C3CCCCO3)c2)C1=O (stereo not drawn) [A279]	0.01 to 1

Structure (SMILES)	IC50 [µM]
O=CN1CCc2cc(N3CC[C@](O)(C(=O)NCc4cc(F)cc(Cl)c4)C3=O)ccc21 [A282]	0.01 to 1
O=CN1CCc2cc(N3CC[C@@](O)(C(=O)NCc4cc(F)cc(Cl)c4)C3=O)ccc21 [A285]	> 10
COC(=O)N1CCc2cc(N3CCC(O)(C(=O)NCc4cc(F)cc(Cl)c4)C3=O)ccc21 (stereo not drawn) [A286]	0.01 to 1
CNC(=O)Cn1ccc2cc(N3CC[C@](O)(C(=O)NCc4cc(F)cc(Cl)c4)C3=O)ccc21 [A287]	0.01 to 1
C#CC(NC(=O)[C@@]1(O)CCN(c2ccccc2)C1=O)c1ccccc1 (stereo partly drawn) [A288]	0.01 to 1
CCNC(=O)N1CCc2cc(N3CC[C@](O)(C(=O)NCc4cc(F)cc(Cl)c4)C3=O)ccc21 [A290]	0.01 to 1
O=C(NCCCN1CCOCC1)[C@@]1(O)CCN(c2ccccc2)C1=O [A292]	> 10
O=C(NCc1ccc2c(c1)OCO2)[C@@]1(O)CCN(c2ccccc2)C1=O [A295]	1 to 10
CCCC(C)NC(=O)[C@@]1(O)CCN(c2ccccc2)C1=O (stereo partly drawn) [A298]	1 to 10
O=C(N1CCOCC1)[C@@]1(O)CCN(c2ccccc2)C1=O [A300]	> 10
CC(C)OCCCNC(=O)[C@@]1(O)CCN(c2ccccc2)C1=O [A301]	1 to 10
O=C(NCc1ccccc1C(F)(F)F)[C@@]1(O)CCN(c2ccccc2)C1=O [A302]	0.01 to 1
CCN(Cc1ccccc1)C(=O)[C@@]1(O)CCN(c2ccccc2)C1=O [A303]	> 10
CC(C)CNC(=O)[C@@]1(O)CCN(c2ccccc2)C1=O [A305]	1 to 10
O=C(N1CCCCC1)[C@@]1(O)CCN(c2ccccc2)C1=O [A308]	> 10
CCCCNC(=O)[C@@]1(O)CCN(c2ccccc2)C1=O [A310]	0.01 to 1
CC1CCN(C(=O)[C@@]2(O)CCN(c3ccccc3)C2=O)CC1 [A316]	1 to 10
O=C(NC1COc2ccccc2C1)[C@@]1(O)CCN(c2ccccc2)C1=O (stereo partly drawn) [A320]	0.01 to 1
CN(Cc1ccsc1)C(=O)[C@@]1(O)CCN(c2ccccc2)C1=O [A321]	> 10
CN(C(=O)[C@@]1(O)CCN(c2ccccc2)C1=O)C1CCCC1 [A323]	1 to 10
O=C(NCC1CCCCC1)[C@@]1(O)CCN(c2ccccc2)C1=O [A324]	0.01 to 1
CC(C)C(C)NC(=O)[C@@]1(O)CCN(c2ccccc2)C1=O (stereo partly drawn) [A326]	1 to 10
CCCOCCNC(=O)[C@@]1(O)CCN(c2ccccc2)C1=O [A329]	1 to 10
O=C(NCc1ccc(C(F)(F)F)cc1)[C@@]1(O)CCN(c2ccccc2)C1=O [A333]	> 10
